Data: PubChem BioAssay (NCI)
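Where inhibition never reached the appropriate level, the endpoint shown equals the highest concentration tested. Otherwise, values were interpolated linearly from a five-concentration, 48-hour dose response in 96-well plates. TGI marks complete inhibition of growth.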

Columns and labels:
Assay in all cases: NCI anticancer screen, dose series, 48 h
DU-145 prostate = system: DU-145 prostate
EKVX NSCLC = system: EKVX NSCLC
SNB-19 CNS = system: SNB-19 CNS
HOP-92 NSCLC = system: HOP-92 NSCLC
NCI-H522 lung = system: NCI-H522 lung
IGROV1 ovarian = system: IGROV1 ovarian
MOLT-4 leukemia = system: MOLT-4 leukemia
UO-31 renal = system: UO-31 renal
OVCAR-4 ovarian = system: OVCAR-4 ovarian
SF-539 CNS = system: SF-539 CNS
NCI/ADR-RES ovarian = system: NCI/ADR-RES ovarian
HOP-62 NSCLC = system: HOP-62 NSCLC
COLO 205 colon = system: COLO 205 colon
786-0 renal = system: 786-0 renal
UACC-257 melanoma = system: UACC-257 melanoma
TK-10 renal = system: TK-10 renal
SK-MEL-5 melanoma = system: SK-MEL-5 melanoma
U251 CNS = system: U251 CNS
SW-620 colon = system: SW-620 colon

SMILES	TGI (DU-145 prostate) [µM]	TGI (EKVX NSCLC) [µM]	TGI (SNB-19 CNS) [µM]	TGI (HOP-92 NSCLC) [µM]	TGI (NCI-H522 lung) [µM]	TGI (IGROV1 ovarian) [µM]	TGI (MOLT-4 leukemia) [µM]	TGI (UO-31 renal) [µM]	TGI (OVCAR-4 ovarian) [µM]	TGI (SF-539 CNS) [µM]	TGI (NCI/ADR-RES ovarian) [µM]	TGI (HOP-62 NSCLC) [µM]	TGI (COLO 205 colon) [µM]	TGI (786-0 renal) [µM]	TGI (UACC-257 melanoma) [µM]	TGI (TK-10 renal) [µM]	TGI (SK-MEL-5 melanoma) [µM]	TGI (U251 CNS) [µM]	TGI (SW-620 colon) [µM]
O=C(OC[C@H]1C[C@H]2C(=O)CCC[C@H]2O1)c1ccccc1	> 100	> 100	> 100	> 100	> 100	> 100	> 100	> 100	> 100	> 100	> 100	> 100	> 100	> 100	> 100	> 100	> 100	> 100	> 100
C/C(=N\NS(=O)(=O)c1ccc(C)cc1)c1cc2ccccc2n1C		> 100	> 100		> 100	> 100	> 100	> 100	> 100	> 100		> 100	> 100	> 100	> 100		> 100	> 100	> 100
COC(=O)C(CC(C)=O)CS(=O)(=O)CC(=O)C(=O)Nc1cccc([N+](=O)[O-])c1 (stereo not given)		> 100	> 100	> 100	> 100	> 100		> 100	> 100	> 100		> 100	> 100	> 100	> 100	> 100	> 100	> 100	> 100
CC1CCCCN1CC(=O)c1ccc2c(c1)Sc1ccccc1O2 (stereo not given)	67.8	28.7	36	30.5		19.9	> 100	25.7	28.6	34	35.5	30.7	> 100	31.9	39	42.5		31.9	42.4
Cc1cc2oc(-c3ccccc3)c(C)c(=O)c2c2c1OC(C)(C)S2		> 100	> 100	> 100	> 100	> 100	> 100	> 100	> 100	> 100		> 100	> 100	> 100	> 100	> 100	> 100	> 100	> 100
O=C(Nc1nc(C23CC4CC(CC(C4)C2)C3)cs1)c1cc2cc(Cl)ccc2oc1=O	> 100	> 100	> 100	> 100	> 100	> 100	> 100	> 100	> 100	> 100	> 100	> 100	> 100	> 100	> 100	> 100	> 100	> 100	> 100
CC(=O)OC12c3ccccc3-c3ccccc3C1C(C(=O)O)C2(Cl)C(=O)O (stereo not given)	> 10	> 10	> 10	> 10	> 10	> 10	> 10	> 10	> 10	> 10	> 10	> 10	> 10	> 10	> 10	> 10	> 10	> 10	> 10
CCOC(=O)C1C(c2ccc(O)c(OC)c2)c2c([nH][nH]c2=O)CC1(C)O (stereo not given)	> 100	> 100	> 100	> 100	> 100	> 100	> 100	> 100	> 100	> 100	> 100	> 100	> 100	> 100	> 100	> 100	> 100	> 100	> 100
C[C@H](NC(=O)n1c2ccccc2c2ccccc21)C(=O)O		> 100	> 100	> 100	> 100	> 100	> 100			> 100		> 100	> 100	> 100	> 100	> 100	> 100	> 100	> 100
COC(=O)C1=CC2CC1C(S(=O)(=O)c1ccccc1)C2S(=O)(=O)c1ccccc1 (stereo not given)			> 100	29.4		98.9	19.6	27.7	39.9			> 100	22	22.2	32.7	24.7	33.2	35.8	21
Cc1ccc2c(c1)C1(OC(=O)c3ccccc31)c1ccc(F)cc1O2 (stereo not given)		> 100		> 100	> 100	> 100	54.9	75.8	> 100			> 100	> 100	> 100	> 100	> 100	> 100		> 100
O=[N+]1ON=C(c2ccccc2)C1=C1C(c2c(-c3ccccc3)no[n+]2[O-])=NON1[O-]	> 100	> 100	> 100	70.1	> 100	> 100	> 100	48.6	9.79	73.4	> 100	55.1	25.4	31.2	67.3	> 100	> 100		> 100
c1cnc2c(c1)-n1cccc1C1(CCSC1)NN2 (stereo not given)		> 100	> 100		> 100		> 100	> 100	> 100	> 100		> 100	> 100	> 100	> 100	> 100	> 100	> 100	> 100
NC(=O)C(=CNC(=S)Nc1ccc(Cl)c(Cl)c1)C(N)=O	> 100	> 100	> 100	> 100	72.3	> 100	> 100	> 73.6	> 100	> 100	> 100	> 100	> 100	> 100	> 100	> 100	> 100	> 100	> 100
Cc1ccc(NCC(=O)N2CC(=O)Nc3ccccc32)cc1		> 100	> 100	> 100	> 100		> 100	> 100	> 100	> 100		> 100	> 100	> 100	> 100	> 100	> 100	> 100	> 100
O=C(CC(C(=O)c1cccs1)c1cccs1)c1ccccc1Cl (stereo not given)	> 100	> 100	> 100			> 100	> 100	> 100	> 100	> 100	> 100	> 100	> 100	> 100	> 100	> 100	> 100	> 100	> 100
CC1(c2cccc(N)c2)C2C(=O)NC(=O)C1C(=O)NC2=O (stereo not given)		> 100	> 100	57.3	46.3	> 100	47.6	67.8	> 100	81.7		> 100	50.2	> 100	> 100	> 100	37		> 100
COc1ccc(N2C(=O)c3c(c4[nH]c5ccc(OC)cc5c4c4ccc(C(C)(C)C)cc34)C2=O)cc1		> 100	> 100	> 100	> 100	> 100	> 100	> 100	> 100	> 100		> 100	> 100	> 100	> 100	> 100	> 100	> 100	
CCC12CCCNC1c1c(n(C)c3ccccc13)C(C(=O)OC)C2 (stereo not given)		> 275	> 275	113	37.6	> 275	> 275			> 275		> 275	82.5	> 275	255	> 275	82.5	> 275	> 275
COC(CC1(/C=C/O[Si](C(C)C)(C(C)C)C(C)C)C(=O)N(COCC[Si](C)(C)C)c2ccccc21)OC (stereo not given)	> 100		> 100	60	23.6	59.9	> 100	> 100	> 100	58.7	> 100	> 100	> 100	> 100	> 100	> 100	> 100	> 100	> 100
Cc1ccc2c(c1)C1C(CO2)C(c2ccccc2)=NN1c1ccccc1 (stereo not given)		> 100	> 100	> 100	> 100	> 100	> 100	> 100		> 100		> 100	> 100	> 100	> 100	> 100		> 100	> 100
Cc1cc(C)n2c(-c3ccccc3)c(C)cc2n1		> 100	> 100	> 100	64.4	> 100		> 100	> 100	73.4		> 100	> 100	> 100	> 100	> 100	> 100	> 100	> 100
